Here are results for six molecules from paper PMC6311682, “Design, Synthesis, and Biological Evaluation of 2-Nitroimidazopyrazin-one/-es with Antitubercular and Antiparasitic Activity” (Journal of Medicinal Chemistry, 2018).

In brackets after ≈: the same amount, converted by molar mass. Read-outs that look alike come from different tables or passages of the source. Marks after values point to notes of the source that are not given here.

Data set [1] is described as follows: Broth microdilution MIC assay, ESKAPE pathogens. The following applies: S. aureus, E. coli, K. pneumoniae, A. baumannii, P. aeruginosa; read-out: antibacterial MIC ESKAPE. Format: cell-based.
Data set [2] concerns ESKAPE pathogens S. aureus (ATCC 43300), E. coli (ATCC 25922), K. pneumoniae (ATCC 700603), A. baumannii (ATCC 19606), P. aeruginosa (ATCC 27853). Briefly: Broth microdilution MIC assay, ESKAPE pathogens. Format: cell-based.
The subject of data set [3] is C. difficile (630, ATCC BAA-1382). Briefly: Broth microdilution MIC assay, C. difficile. Format: cell-based, Clostridium difficile. As to conditions: 630 ATCC BAA-1382, median MIC; for MIC: Clostridioides difficile, ATCCBAA1382, read-out: antibacterial MIC C. difficile. For orientation: Dilution methods test growth across graded concentrations, often in twofold steps.

Data set [4] can be described thus: Mammalian cytotoxicity assay (resazurin), HepG2. The following applies: human, HepG2 cells. For orientation: Resazurin is reduced to fluorescent resorufin, in cell work by metabolically active cells.
Data set [5] concerns L. donovani MHOM/IN/80/DD8 (ATCC50212). Description: L. donovani DD8 intracellular (THP-1) amastigote assay. The following applies: Leishmania donovani. Format: cell-based.
The nature of data set [6]: Kinetic solubility determination by LC-UV. The following applies: room temperature, 1% DMSO.
For data set [7], the system named is C. albicans (ATCC 90028) and C. neoformans (H99, ATCC 208821). Description: Broth microdilution MIC assay, fungi. The class given is cell-based. The following applies: for MIC: Candida albicans, read-out: antifungal MIC.
A short description of data set [8]: Mammalian cytotoxicity assay (resazurin), HEK293. The following applies: human, HEK293 cells.
Setting [9] is: read-out: antiparasitic IC50 L. donovani.
The mark [10] stands for this setting: read-out: antiparasitic pIC50 ± SE L. donovani (converted).
Setting [11] is: PBS, pH 7.4, Solubility µM (PBS), PBS pH 7.4, 24 h.
[12] abbreviates: water, Solubility µM (H2O), 24 h.

`CC(=O)OCCOc1nc(-c2ccccc2)cn2cc([N+](=O)[O-])nc12` [24c, 2-((2-Nitro-6-phenylimidazo[1,2-a]pyrazin-8-yl)oxy)ethyl Acetate]: the MIC (usually the least concentration at which growth counts as inhibited) is greater than 32 µg/mL in data set [1], greater than 64 µg/mL in data set [3] and greater than 32 µg/mL in data set [7]. In data set [2], the “antibacterial MIC ESKAPE” value was greater than 32 µg/mL. The “antibacterial MIC C. difficile” value in data set [3] is greater than 64 µg/mL. In addition, the CC50 at 24 h in data set [4] and in data set [8] was greater than 100 µM each time. Further, the IC50 in data set [5] (setting [9]) was greater than 80 µM; in data set [5] (setting [10]), greater than 79.4 µM. Also, the solubility at 24 h in data set [6] (setting [11]) and in data set [6] (setting [12]) was less than 5 µM throughout. For the same molecule, in data set [7], the “antifungal MIC” value is greater than 32 µg/mL.

Turning to `O=[N+]([O-])c1cn2cc(-c3ccccc3)nc(OCCO)c2n1` [24e, 2-((2-Nitro-6-phenylimidazo[1,2-a]pyrazin-8-yl)oxy)ethan-1-ol], the results for the MIC in data set [1], in data set [3] and in data set [7] were 16 to 32 µg/mL (≈ 53.3 to 107 µM), greater than 64 µg/mL and greater than 32 µg/mL, respectively. For the same molecule, in data set [2], the “antibacterial MIC ESKAPE” value is 16-32* μg/mL. The “antibacterial MIC C. difficile” value in data set [3] was greater than 64 µg/mL. In addition, the CC50 at 24 h in data set [4] and in data set [8] was greater than 100 µM throughout. Further, the IC50 in data set [5] (setting [9]) was greater than 80 µM; in data set [5] (setting [10]), greater than 79.4 µM. In addition, the solubility at 24 h in data set [6] (setting [11]) and in data set [6] (setting [12]) was less than 5 µM throughout. Moreover, in data set [7], the “antifungal MIC” value is greater than 32 µg/mL.

`Cc1cn2cc([N+](=O)[O-])nc2c(=O)[nH]1` [25a, 6-Methyl-2-nitroimidazo[1,2-a]pyrazin-8(7H)-one]: the MIC in data set [1] is greater than 32 µg/mL; in data set [3], greater than 64 µg/mL; in data set [7], greater than 32 µg/mL. The “antibacterial MIC ESKAPE” value in data set [2] was greater than 32 µg/mL. Moreover, in data set [3], the “antibacterial MIC C. difficile” value was greater than 64 µg/mL. Also, the CC50 at 24 h in data set [4] and in data set [8] was greater than 100 µM throughout. Moreover, the IC50 in data set [5] (setting [9]) was greater than 80 µM; in data set [5] (setting [10]), greater than 79.4 µM. The values for the solubility at 24 h in data set [6] (setting [11]) and in data set [6] (setting [12]) were 183 ± 29.2 µM (≈ 35.5 µg/mL) and 182 ± 18.2 µM (≈ 35.3 µg/mL), respectively. Also, the “antifungal MIC” value in data set [7] is greater than 32 µg/mL.

For `Cc1ccc(Cn2c(C)c(C)n3cc([N+](=O)[O-])nc3c2=O)cc1` [26d, 5,6-Dimethyl-7-(4-methylbenzyl)-2-nitroimidazo[1,2-a]pyrazin-8(7H)-one], the MIC in data set [1] and in data set [7] was greater than 32 µg/mL each time. Further, in data set [2], the “antibacterial MIC ESKAPE” value was greater than 32 µg/mL. Moreover, the CC50 at 24 h in data set [4] and in data set [8] was greater than 100 µM in each case. The figures for the IC50 in data set [5] (setting [9]) and in data set [5] (setting [10]) were greater than 40 µM and greater than 39.8 µM, respectively. For the same molecule, the solubility – broadly, how much of the substance goes into solution per volume – at 24 h in data set [6] (setting [11]) was 6.13 ± 0.0957 µM (≈ 1.91 µg/mL); in data set [6] (setting [12]), 8.95 ± 1.51 µM (≈ 2.8 µg/mL). For the same molecule, the “antifungal MIC” value in data set [7] was greater than 32 µg/mL.

On to `Cc1ccc(COc2nc(C)c(C)n3cc([N+](=O)[O-])nc23)cc1` [26e, 5,6-Dimethyl-8-((4-methylbenzyl)oxy)-2-nitroimidazo[1,2-a]pyrazine], for which the minimal inhibitory concentration (MIC) in data set [1] and in data set [7] was greater than 32 µg/mL each time. Also, the “antibacterial MIC ESKAPE” value in data set [2] is greater than 32 µg/mL. In addition, the cytotoxic concentration (CC50) at 24 h in data set [4] and in data set [8] was greater than 100 µM throughout. Further, the IC50 in data set [5] (setting [9]) and in data set [5] (setting [10]) was greater than 20 µM in each case. In addition, the solubility at 24 h in data set [6] (setting [11]) and in data set [6] (setting [12]) was less than 5 µM in each case. Also, the “antifungal MIC” value in data set [7] is greater than 32 µg/mL.

For `Cc1nc(OCc2cccc(OC(F)(F)F)c2)c2nc([N+](=O)[O-])cn2c1C` [26g, 5,6-Dimethyl-2-nitro-8-((3-(trifluoromethoxy)benzyl)oxy)imidazo[1,2-a]pyrazine], the MIC in data set [1] and in data set [7] was greater than 32 µg/mL in each case. The “antibacterial MIC ESKAPE” value in data set [2] is greater than 32 µg/mL. Moreover, the CC50 at 24 h in data set [4] and in data set [8] was greater than 100 µM throughout. For the same molecule, the IC50 in data set [5] (setting [9]) and in data set [5] (setting [10]) was greater than 20 µM in each case. The solubility at 24 h in data set [6] (setting [11]) and in data set [6] (setting [12]) was less than 5 µM each time. Besides, the “antifungal MIC” value in data set [7] is greater than 32 µg/mL.
